The results in this text go back to paper PMC9673804, “Design, synthesis and antitumor evaluation of novel pyrazolo[3,4-d]pyrimidines incorporating different amino acid conjugates as potential DHFR inhibitors” (Journal of Enzyme Inhibition and Medicinal Chemistry, 2022).

Where “and” joins values, the source holds several entries; their conditions need not be identical. Equal values may be shown once. Bounds are passed on as bounds.

For assay [1], the system named is cervical carcinoma (HeLa). As to the kind of experiment: SRB cytotoxicity assay, HeLa. The class given is cell-based. The following applies: Homo sapiens, HeLa cells.
Assay [2] concerns human prostate cancer (PC-3). As to the kind of experiment: SRB cytotoxicity assay, PC-3. The assay is classed as cell-based. The following applies: PC-3 cells. The procedure:
(§1) The SRB colorimetric assay was employed to assess the synthesized compounds’ cytotoxic effects on several cancer cell lines (Table 1)[11–14]. […] Furthermore, the effect of tested compounds was evaluated on the normal immortalized HPDE cell line.
(§2) Sulforhodamine B (SRB) assay was employed to assay in-vitro antitumor activities of all the synthesised compounds as describer previously. […] The cell lines were obtained from the American Type Culture Collection (Rockville, USA).
A general note: In SRB staining, fixed cells bind dye roughly in proportion to their protein.

The subject of assay [3] is colorectal carcinoma (HCT-116). Description: SRB cytotoxicity assay, HCT-116. The assay is classed as cell-based. The following applies: Homo sapiens, HCT-116 cells. The procedure: as §1, §2
For assay [4], the system named is pancreatic human cancer cell lines (BxPC-3). Description: SRB cytotoxicity assay, BxPC-3. The assay is classed as cell-based. The following applies: BxPC-3 cells. The procedure: as §1, §2
Assay [5] deals with human hepatocellular carcinoma (HepG-2). As to the kind of experiment: SRB cytotoxicity assay, HepG-2. The class given is cell-based. Conditions: HepG2, HepG-2 cells. The method, then: as §1, §2
The subject of assay [6] is mammary gland breast cancer (MCF-7). As to the kind of experiment: SRB cytotoxicity assay, MCF-7. The assay is classed as cell-based. The following applies: Homo sapiens, MCF7, MCF-7 cells. The method, then:
as §1, §2

In the next assay the target is T1, human DHFR enzyme (Homo sapiens, UniProt P00374).
T1 construct: purchased MyBioSource MBS9312476
T1 sequence (P00374 1-187): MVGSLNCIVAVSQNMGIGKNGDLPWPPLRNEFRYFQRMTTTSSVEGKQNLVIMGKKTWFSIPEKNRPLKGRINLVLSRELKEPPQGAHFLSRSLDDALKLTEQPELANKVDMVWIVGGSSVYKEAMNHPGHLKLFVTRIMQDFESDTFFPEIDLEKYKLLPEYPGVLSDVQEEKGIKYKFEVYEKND
Description: Elisa assay of human DHFR enzyme. Conditions: for IC50: DHFR ELISA kit, triplicate; for inhibition at 0.1 µM: conc 0.1 uM; for inhibition at 1 µM: conc 1 uM; for inhibition at 10 µM: conc 10 uM; for inhibition at 100 µM: conc 100 uM. The assay is classed as biochemical. The method, then: Enzyme-linked immunosorbent assay (ELISA) assay technique was used to evaluate the anti-DHFR effects of all the synthesised compounds on as described previously. The DHFR ELISA kit (MyBioSource, MBS9312476 San Diego, CA, USA) was used according to the manufacturer instructions. […] The test was repeated in triplicate, and the significance was assessed by one-way ANOVA test followed by Tukey’s posttest, where p < 0.05 was considered significance.
(In general: ELISA stands for enzyme-linked immunosorbent assay.)

The subject of assay [7] is normal immortalised pancreatic cell line (HPDE). Description: SRB cytotoxicity assay, normal HPDE cells. The class given is cell-based. The following applies: normal immortalized HPDE cell line. The procedure: as §1, §2

Usually IC50 stands for the midpoint of a concentration-inhibition curve. A lower IC50 goes with inhibition by little substance. In general, inhibition refers to how much of the control response was suppressed. Consider `O=C(c1ccc(Nc2ncnc3c2cnn3-c2ccccc2)cc1)n1nnc2ccccc21` [Compound 6, {1H-benzo[d][1,2,3]triazol-1-yl}{4-[(1-phenyl-1H-pyrazolo-[3,4-d]pyrimidin-4-yl)-amino]phenyl}-methanone], for which the half-inhibitory concentration (IC50) in assay [1] came to 15.1 ± 1.21 µM; in assay [2] it was 14.9 ± 1.24 µM; in assay [3], 17.3 ± 2.18 µM; in assay [4], 14.2 ± 1.36 µM; in assay [5], 13 ± 1.86 µM; in assay [6], 11.9 ± 1.1 µM. Moreover, the IC50 on human DHFR enzyme is 7.99 ± 0.16 µM; in assay [7], > 50 µM. Moreover, 0.1 µM produced 17% inhibition on human DHFR enzyme. Moreover, at human DHFR enzyme, 1 µM produced 29% inhibition. For the same compound, at 10 µM the inhibition against human DHFR enzyme was 61%. Moreover, the inhibition at 100 µM at human DHFR enzyme is 89%.

Turning to `O=C(O)CNC(=O)c1ccc(Nc2ncnc3c2cnn3-c2ccccc2)cc1` [Compound 7a, 2-{4-[(1-Phenyl-1H-pyrazolo[3,4-d]pyrimidin-4-yl)amino]benzamido}acetic acid], the IC50 in assay [1] came out at 19.4 ± 1.21 µM; in assay [2] it was 23 ± 1.03 µM; in assay [3] it was 28.2 ± 1.93 µM; in assay [4], 19.4 ± 1.56 µM; in assay [5], 15.5 ± 0.96 µM; in assay [6], 15.3 ± 1.29 µM. For the same compound, the half-maximal inhibitory concentration (IC50) against human DHFR enzyme is 13.3 ± 0.24 µM; in assay [7] it was > 50 µM. Also, on human DHFR enzyme, the inhibition at 0.1 µM stood at 12%. The inhibition at 1 µM against human DHFR enzyme was 30%. The same compound yielded an inhibition at 10 µM against human DHFR enzyme of 57%. The same compound came in with an inhibition at 100 µM at human DHFR enzyme of 81%.

For `CC(NC(=O)c1ccc(Nc2ncnc3c2cnn3-c2ccccc2)cc1)C(=O)O` (stereo not drawn) [Compound 7b, 2-{4-[(1-Phenyl-1H-pyrazolo[3,4-d]pyrimidin-4-yl)amino]benzamido}propanoic acid], the 50% inhibitory concentration (IC50) in assay [1] was determined as 29.2 ± 1.9 µM; in assay [2] it was 34.2 ± 2.61 µM; in assay [3], 29.6 ± 1.91 µM; in assay [4], 31.2 ± 2.8 µM; in assay [5], 19.2 ± 1.87 µM; in assay [6], 35.7 ± 2.09 µM. Moreover, the IC50 was 42.5 ± 0.78 µM against human DHFR enzyme and > 50 µM in assay [7]. Besides, on human DHFR enzyme, the inhibition at 0.1 µM came to 6.4%. On human DHFR enzyme, this compound returned an inhibition at 1 µM of 20%. On human DHFR enzyme, this compound displayed an inhibition at 10 µM of 38%. This compound came in with an inhibition at 100 µM against human DHFR enzyme of 72%.

Turning to `CC(C)C(NC(=O)c1ccc(Nc2ncnc3c2cnn3-c2ccccc2)cc1)C(=O)O` (stereo not drawn) [Compound 7c, 3-Methyl-2-{4-[(1-phenyl-1H-pyrazolo[3,4-d]pyrimidin-4-yl)amino]benzamido}butanoic acid], the half-inhibitory concentration (IC50) in assay [1] stood at 9.39 ± 0.25 µM; in assay [2], 11.2 ± 0.34 µM; in assay [3], 10.6 ± 1.1 µM; in assay [4], 10.2 ± 1.01 µM; in assay [5] it was 12.2 ± 1.14 µM; in assay [6], 6.56 ± 0.18 µM. In addition, the half-inhibitory concentration (IC50) against human DHFR enzyme is < 1 µM and ~0.61 µM and 0.61 µM; in assay [7], > 50 µM. In addition, on human DHFR enzyme, 0.1 µM produced 39% inhibition. The inhibition at 1 µM at human DHFR enzyme was 65%. The compound further registered an inhibition at 10 µM on human DHFR enzyme of 80%. Moreover, testing at 100 µM on human DHFR enzyme gave an inhibition of 94%.

As for `CCC(C)C(NC(=O)c1ccc(Nc2ncnc3c2cnn3-c2ccccc2)cc1)C(=O)O` (stereo not drawn) [Compound 7d, 3-Methyl-2-{4-[(1-phenyl-1H-pyrazolo[3,4-d]pyrimidin-4-yl)amino]benzamido}pentanoic acid], the half-maximal inhibitory concentration (IC50) was 8.09 ± 0.51 µM in assay [1]; 9.99 ± 0.81 µM in assay [2]; 10.1 ± 1.01 µM in assay [3]; 11.2 ± 0.41 µM in assay [4]; 9.09 ± 0.71 µM in assay [5]; 5.51 ± 0.28 µM in assay [6]. Further, the IC50 against human DHFR enzyme was < 1 µM and 0.43 µM; in assay [7], > 50 µM. Also, the inhibition at 0.1 µM at human DHFR enzyme came out at 42%. The same compound gave an inhibition at 1 µM at human DHFR enzyme of 66%. On human DHFR enzyme, this compound had an inhibition at 10 µM of 85%. At human DHFR enzyme, this compound showed an inhibition at 100 µM of 95%.

For the compound `O=C(O)CCC(NC(=O)c1ccc(Nc2ncnc3c2cnn3-c2ccccc2)cc1)C(=O)O` (stereo not drawn) [Compound 7e, 2-{4-[(1-Phenyl-1H-pyrazolo[3,4-d]pyrimidin-4-yl)amino]benzamido}pentanedioic acid], the IC50 in assay [1] was found to be 13.1 ± 1.01 µM; in assay [2] it was 13.8 ± 1.14 µM; in assay [3] it was 15.3 ± 1.18 µM; in assay [4] it was 15.2 ± 1.15 µM; in assay [5], 16 ± 0.8 µM; in assay [6], 11.9 ± 1.1 µM. Moreover, the IC50 against human DHFR enzyme is 1.83 ± 0.04 µM; in assay [7], > 50 µM. The same compound registered an inhibition at 0.1 µM against human DHFR enzyme of 28%. The compound also yielded an inhibition at 1 µM at human DHFR enzyme of 57%. At 10 µM the inhibition at human DHFR enzyme was 72%. In addition, at human DHFR enzyme, 100 µM produced 89% inhibition.

As for `O=C(NC(CS)C(=O)O)c1ccc(Nc2ncnc3c2cnn3-c2ccccc2)cc1` (stereo not drawn) [Compound 7g, 3-Mercapto-2-{4-[(1-phenyl-1H-pyrazolo[3,4-d]pyrimidin-4-yl)amino]benzamido}propanoic acid], the IC50 in assay [1] amounted to 12.3 ± 1.2 µM; in assay [2], 13.2 ± 1.52 µM; in assay [3], 12.2 ± 1.2 µM; in assay [4], 15.2 ± 0.22 µM; in assay [5] it was 10.2 ± 0.92 µM; in assay [6] it was 10.8 ± 1.1 µM. For the same compound, the IC50 at human DHFR enzyme was 1.28 ± 0.03 µM; in assay [7] it was > 50 µM. The compound further yielded an inhibition at 0.1 µM on human DHFR enzyme of 37%. At human DHFR enzyme, this compound showed an inhibition at 1 µM of 55%. At 10 µM the inhibition against human DHFR enzyme was 70%. The inhibition at 100 µM on human DHFR enzyme came to 84%.

In the case of `CSCCC(NC(=O)c1ccc(Nc2ncnc3c2cnn3-c2ccccc2)cc1)C(=O)O` (stereo not drawn) [Compound 7h, 4-(Methylthio)-2-{4-[(1-phenyl-1H-pyrazolo[3,4-d]pyrimidin-4-yl)amino]benzamido}butanoic acid], the IC50 in assay [1] was determined as 18 ± 1.2 µM; in assay [2], 17 ± 2.02 µM; in assay [3] it was 19.3 ± 0.85 µM; in assay [4] it was 17.9 ± 1.03 µM; in assay [5], 17 ± 0.92 µM; in assay [6], 20 ± 2.01 µM. For the same compound, the half-inhibitory concentration (IC50) on human DHFR enzyme is 8.47 ± 0.18 µM; in assay [7], > 50 µM. The compound also gave an inhibition at 0.1 µM on human DHFR enzyme of 21%. The compound further came in with an inhibition at 1 µM at human DHFR enzyme of 36%. In addition, the inhibition at 10 µM on human DHFR enzyme was 54%. On human DHFR enzyme, this compound returned an inhibition at 100 µM of 81%.

Regarding `O=C(NC(Cc1c[nH]cn1)C(=O)O)c1ccc(Nc2ncnc3c2cnn3-c2ccccc2)cc1` (stereo not drawn) [Compound 7i, 3-(1h-Imidazol-4-yl)-2-{4-[(1-phenyl-1H-pyrazolo[3,4-d]pyrimidin-4-yl)amino]benzamido}-propanoic acid], the IC50 in assay [1] was determined as 10.9 ± 1.99 µM; in assay [2], 12.8 ± 2.01 µM; in assay [3], 13 ± 1.01 µM; in assay [4] it was 10.5 ± 3.01 µM; in assay [5], 9.26 ± 1.56 µM; in assay [6], 13.2 ± 1.21 µM. In addition, the 50% inhibitory concentration (IC50) at human DHFR enzyme was < 1 µM and 0.82 µM; in assay [7], > 50 µM. The inhibition at 0.1 µM at human DHFR enzyme amounted to 35%. The inhibition at 1 µM against human DHFR enzyme came to 63%. Also, on human DHFR enzyme, the inhibition at 10 µM was 80%. The same compound had an inhibition at 100 µM at human DHFR enzyme of 94%.

`COc1cccc2c1C(=O)c1c(O)c3c(c(O)c1C2=O)C[C@@](O)(C(=O)CO)C[C@@H]3O[C@H]1C[C@H](N)[C@H](O)[C@H](C)O1` [Doxorubicin, reference compound]: the IC50 in assay [2] was 9.01 ± 0.09 µM; in assay [4], 7.23 ± 0.1 µM; in assay [5], 4.6 ± 0.44 µM; in assay [6], 4.25 ± 0.15 µM; in assay [7], > 50 µM.

`CN(Cc1cnc2nc(N)nc(N)c2n1)c1ccc(C(=O)N[C@@H](CCC(=O)O)C(=O)O)cc1` [Methotrexate, methotrexate, reference compound]: the half-inhibitory concentration (IC50) in assay [1] worked out at 294.8 ± 0.51 µM; in assay [2], 42.3 ± 7.25 µM; in assay [3], 99.98 ± 0.22 µM; in assay [4], 29.1 ± 0.31 µM; in assay [5] it was 800.24 ± 0.16 µM; in assay [6] it was 66.11 ± 0.15 µM. The concentration for half-maximal inhibition (IC50) in assay [7] was > 50 µM.
